In one series the target is T1, mαvβ5 (Mus musculus, UniProt O70309+P43406).
T1 construct: The full extracellular domains for all α and β integrin subunits; (GGGS)3 linker (C); acidic coiled-coil with cysteine (C); GG-Avitag (C); hexa-histidine tag (C); basic coiled-coil with cysteine (C); made in house; host or cells: Expi293 cells
In words: Mouse AlphaLISA integrin-ligand blocking assay (vitronectin). The note with it: Table 12; read-out: IC50 Mouse integrin AlphaLISA assays mαvβ5. The series is classed as biochemical. The procedure:
(§1) Integrin AlphaLISA assay. In the AlphaLISA integrin assays, we used a HEPES based buffer (25 mM HEPES pH 7.4, 137 mM NaCl, 1 mM MgCl2, 1 mM MnCl2, 2 mM CaCl2, 2.7 mM KCl, and 0.05% Tween 20). Optimal assay conditions were determined with a titration of the reagents for signal noise ratio (S/N), linear range, etc. For the respective integrins, we used the final concentrations described in Table 9.
(§2) Briefly, the testing antibody (8 μL) was added as a 4×(of Final testing concentration) solution in the HEPES buffer described previously into a 384w AlphaPlate™ (Perkin Elmer #6005350). Then the integrin and ligand were added sequentially as 8×(4 μL each). Plates were sealed and incubated at room temperature for two hours. Then 4×acceptor bead solution ([…]) was added, and the plates were resealed and incubated at room temperature (RT) for one hour. Finally, 4×([…]) donor beads solution was added in a darkened room and incubated for 45 minutes at room temperature. Plates were read on the Envision (Perkin Elmer) in AlphaScreen™ mode within three hours of donor bead addition.
On the technique in general: In Alpha technology, singlet oxygen from a donor bead excites a nearby acceptor bead.

Another series deals with T2, mαvβ3 (Mus musculus, UniProt O54890+P43406).
T2 construct: The full extracellular domains for all α and β integrin subunits; (GGGS)3 linker (C); acidic coiled-coil with cysteine (C); GG-Avitag (C); hexa-histidine tag (C); basic coiled-coil with cysteine (C); made in house; host or cells: Expi293 cells
The description is as above. The conditions noted are these: Table 12; read-out: IC50 Mouse integrin AlphaLISA assays mαvβ3. The series is classed as biochemical. The procedure: as §1, §2

For series [1] the following is noted: humans; cited from earlier work.
The test system of series [2] is IPF patient lung fibroblasts. In words: αSMA imaging, TGFβ-induced αSMA expression. The series is classed as cell-based, human. The arrangement: inhibiting αSMA induction: dose or concentration left out as unconfirmed. As to the method: αSMA imaging. Primary cells (passage 3-5) were grown on Cell carrier Ultra, collagen Type 1 coated 96-well plates (Perkin Elmer, #6055700) at a density of 25,000 cells/well. Once the cells adhere, they were starved in serum free media for 24 hours followed by addition of treatments, i.e., 5 ng/mL TGFβ (Biolegend #580702)±inhibitors. Cells were pre-treated with inhibitors for 30 minutes prior to the addition of TGFβ stimulation. 48 hours post treatment, the cells were fixed in 4% methanol free paraformaldehyde (ThermoFisher Scientific #28908) for 20 minutes at room temperature and incubated with anti-alpha smooth muscle Actin antibody (Abcam #ab7817) at 1:4000 overnight at 4° C. Following primary antibody incubation, cells were incubated with Goat anti-mouse secondary antibody (ThermoFisher Scientific #A32723) at 1:500 and Hoechst (ThermoFisher Scientific #62249) at 1:1000 for one hour at RT. The fixed and stained cells were images for immunofluorescence on Perkin Elmer's Opera Phenix high content Imager.

For the next series, the target named is T3, hαvβ3 (Homo sapiens, UniProt P05106+P06756).
T3 construct: The full extracellular domains for all α and β integrin subunits; (GGGS)3 linker (C); acidic coiled-coil with cysteine (C); GG-Avitag (C); hexa-histidine tag (C); basic coiled-coil with cysteine (C); made in house; host or cells: Expi293 cells
In words: Human AlphaLISA integrin-ligand blocking assay (vitronectin). Type of series: biochemical. The procedure: as §1, §2

Another series has as its target T4, hαvβ5 (Homo sapiens, UniProt P06756+P18084).
T4 construct: The full extracellular domains for all α and β integrin subunits; (GGGS)3 linker (C); acidic coiled-coil with cysteine (C); GG-Avitag (C); hexa-histidine tag (C); basic coiled-coil with cysteine (C); made in house; host or cells: Expi293 cells
The description is as above. Type of series: biochemical. The procedure:
as §1, §2

The next series concerns the target T5, mα5β1 (Mus musculus, UniProt P09055+P11688).
T5 construct: The full extracellular domains for all α and β integrin subunits; (GGGS)3 linker (C); acidic coiled-coil with cysteine (C); GG-Avitag (C); hexa-histidine tag (C); basic coiled-coil with cysteine (C); made in house; host or cells: Expi293 cells
Briefly: Mouse AlphaLISA integrin-ligand blocking assay (fibronectin). The note with it: Table 12; read-out: IC50 Mouse integrin AlphaLISA assays mα5β1. Type of series: biochemical. As to the method: as §1, §2

The target in another series is T6, mαvβ1 (Mus musculus, UniProt P09055+P43406).
T6 construct: The full extracellular domains for all α and β integrin subunits; (GGGS)3 linker (C); acidic coiled-coil with cysteine (C); GG-Avitag (C); hexa-histidine tag (C); basic coiled-coil with cysteine (C); made in house; host or cells: Expi293 cells
The series is described as above. Type of series: biochemical. The note with it: Table 12; read-out: IC50 Mouse integrin AlphaLISA assays mαvβ1. As to the method: as §1, §2

SMILES strings stand for the structures. Where two headings read alike, the source gives them in different places.

The values that follow come from US20250313635A1, “ANTI-INTEGRIN ANTIBODIES AND USES THEREOF” (Merck Sharp & Dohme LLC, priority 2022, published 2025).

T3 sequence (P06756 31-992 limits assumed): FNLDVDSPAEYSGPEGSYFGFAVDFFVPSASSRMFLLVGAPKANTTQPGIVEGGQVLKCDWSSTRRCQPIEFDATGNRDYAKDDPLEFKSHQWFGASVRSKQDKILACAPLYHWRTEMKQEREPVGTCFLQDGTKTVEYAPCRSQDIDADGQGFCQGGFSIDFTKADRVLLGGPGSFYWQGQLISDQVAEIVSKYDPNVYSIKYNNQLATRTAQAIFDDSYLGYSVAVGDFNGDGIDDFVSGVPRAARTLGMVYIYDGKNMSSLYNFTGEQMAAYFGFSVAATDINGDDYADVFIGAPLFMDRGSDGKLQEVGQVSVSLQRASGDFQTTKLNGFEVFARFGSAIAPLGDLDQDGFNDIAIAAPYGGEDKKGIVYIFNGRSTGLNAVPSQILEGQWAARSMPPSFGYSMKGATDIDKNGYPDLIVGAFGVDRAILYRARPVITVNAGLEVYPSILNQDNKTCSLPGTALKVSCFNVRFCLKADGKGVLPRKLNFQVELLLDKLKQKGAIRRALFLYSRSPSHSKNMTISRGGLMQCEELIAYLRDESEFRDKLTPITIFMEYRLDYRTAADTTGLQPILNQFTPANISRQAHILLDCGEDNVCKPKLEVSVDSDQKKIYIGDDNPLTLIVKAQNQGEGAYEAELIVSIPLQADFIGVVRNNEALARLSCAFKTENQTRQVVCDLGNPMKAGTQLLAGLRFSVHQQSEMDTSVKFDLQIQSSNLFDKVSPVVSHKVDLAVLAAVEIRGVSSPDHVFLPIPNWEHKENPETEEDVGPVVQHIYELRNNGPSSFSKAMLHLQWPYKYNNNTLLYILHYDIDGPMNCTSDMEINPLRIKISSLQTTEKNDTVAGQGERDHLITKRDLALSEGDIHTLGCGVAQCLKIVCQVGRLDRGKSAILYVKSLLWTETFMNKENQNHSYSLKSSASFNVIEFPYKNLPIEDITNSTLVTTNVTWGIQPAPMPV
T3 sequence (P05106 27-718 limits assumed): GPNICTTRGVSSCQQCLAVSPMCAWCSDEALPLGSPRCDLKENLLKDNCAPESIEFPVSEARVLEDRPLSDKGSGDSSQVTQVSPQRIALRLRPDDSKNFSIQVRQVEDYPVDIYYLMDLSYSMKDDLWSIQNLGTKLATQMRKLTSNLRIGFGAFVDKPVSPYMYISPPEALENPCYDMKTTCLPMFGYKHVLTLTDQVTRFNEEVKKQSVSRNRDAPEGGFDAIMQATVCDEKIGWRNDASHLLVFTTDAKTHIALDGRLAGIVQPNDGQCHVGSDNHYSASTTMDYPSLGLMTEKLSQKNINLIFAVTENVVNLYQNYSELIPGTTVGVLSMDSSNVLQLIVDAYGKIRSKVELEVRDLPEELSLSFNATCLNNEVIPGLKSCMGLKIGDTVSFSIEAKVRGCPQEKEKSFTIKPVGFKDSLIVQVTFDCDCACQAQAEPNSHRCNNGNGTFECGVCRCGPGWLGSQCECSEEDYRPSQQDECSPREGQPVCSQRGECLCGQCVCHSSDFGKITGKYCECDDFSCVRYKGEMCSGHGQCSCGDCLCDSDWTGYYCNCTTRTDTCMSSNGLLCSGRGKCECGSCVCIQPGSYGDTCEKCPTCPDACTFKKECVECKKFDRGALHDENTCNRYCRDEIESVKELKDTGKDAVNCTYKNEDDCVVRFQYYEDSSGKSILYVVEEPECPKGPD
T4 sequence (P06756 31-992 limits assumed): as the sequence (P06756 31-992 limits assumed) above
T4 sequence (P18084 24-719 limits assumed): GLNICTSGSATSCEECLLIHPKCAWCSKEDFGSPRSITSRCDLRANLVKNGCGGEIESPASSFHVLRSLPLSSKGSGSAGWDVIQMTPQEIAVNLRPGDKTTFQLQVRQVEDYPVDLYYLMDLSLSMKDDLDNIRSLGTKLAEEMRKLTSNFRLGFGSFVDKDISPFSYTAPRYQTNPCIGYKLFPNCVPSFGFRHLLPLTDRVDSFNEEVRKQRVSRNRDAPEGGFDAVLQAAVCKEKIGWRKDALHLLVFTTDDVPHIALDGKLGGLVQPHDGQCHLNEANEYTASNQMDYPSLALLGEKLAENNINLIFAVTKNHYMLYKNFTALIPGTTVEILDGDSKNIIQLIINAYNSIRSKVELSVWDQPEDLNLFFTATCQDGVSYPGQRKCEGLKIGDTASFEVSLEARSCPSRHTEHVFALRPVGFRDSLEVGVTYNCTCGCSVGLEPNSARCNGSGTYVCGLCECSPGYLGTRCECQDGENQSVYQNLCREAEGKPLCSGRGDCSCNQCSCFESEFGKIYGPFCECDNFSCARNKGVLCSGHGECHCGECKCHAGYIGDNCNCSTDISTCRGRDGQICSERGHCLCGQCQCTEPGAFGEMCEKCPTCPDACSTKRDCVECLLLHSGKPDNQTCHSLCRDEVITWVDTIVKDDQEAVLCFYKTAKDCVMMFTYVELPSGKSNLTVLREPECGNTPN
T5 sequence (P11688 45-999 limits assumed): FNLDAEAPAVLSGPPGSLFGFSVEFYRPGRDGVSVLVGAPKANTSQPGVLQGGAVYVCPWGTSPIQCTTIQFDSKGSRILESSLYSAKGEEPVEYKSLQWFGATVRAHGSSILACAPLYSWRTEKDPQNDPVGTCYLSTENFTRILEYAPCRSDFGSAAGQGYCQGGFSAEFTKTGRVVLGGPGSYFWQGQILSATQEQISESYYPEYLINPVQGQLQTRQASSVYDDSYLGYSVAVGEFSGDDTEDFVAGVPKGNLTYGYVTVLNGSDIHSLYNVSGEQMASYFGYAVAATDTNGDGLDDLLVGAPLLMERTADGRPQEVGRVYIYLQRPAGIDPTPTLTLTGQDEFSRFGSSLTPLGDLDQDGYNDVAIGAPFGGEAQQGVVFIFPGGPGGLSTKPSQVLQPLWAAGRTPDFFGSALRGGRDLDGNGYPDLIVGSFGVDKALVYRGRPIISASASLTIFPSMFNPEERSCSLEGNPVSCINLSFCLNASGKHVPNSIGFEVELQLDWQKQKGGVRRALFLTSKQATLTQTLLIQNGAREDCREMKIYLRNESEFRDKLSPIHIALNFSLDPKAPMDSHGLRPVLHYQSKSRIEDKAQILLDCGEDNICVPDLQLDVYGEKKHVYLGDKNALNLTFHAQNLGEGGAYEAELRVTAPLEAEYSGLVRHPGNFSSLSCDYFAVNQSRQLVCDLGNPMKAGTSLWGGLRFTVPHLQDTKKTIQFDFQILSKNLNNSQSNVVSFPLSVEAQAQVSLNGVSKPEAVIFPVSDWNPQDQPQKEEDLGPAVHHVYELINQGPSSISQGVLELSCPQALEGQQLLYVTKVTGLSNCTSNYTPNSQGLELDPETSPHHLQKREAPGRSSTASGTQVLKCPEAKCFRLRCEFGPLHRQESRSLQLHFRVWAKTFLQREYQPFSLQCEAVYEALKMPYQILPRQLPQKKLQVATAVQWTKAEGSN
T5 sequence (P09055 21-728 limits assumed): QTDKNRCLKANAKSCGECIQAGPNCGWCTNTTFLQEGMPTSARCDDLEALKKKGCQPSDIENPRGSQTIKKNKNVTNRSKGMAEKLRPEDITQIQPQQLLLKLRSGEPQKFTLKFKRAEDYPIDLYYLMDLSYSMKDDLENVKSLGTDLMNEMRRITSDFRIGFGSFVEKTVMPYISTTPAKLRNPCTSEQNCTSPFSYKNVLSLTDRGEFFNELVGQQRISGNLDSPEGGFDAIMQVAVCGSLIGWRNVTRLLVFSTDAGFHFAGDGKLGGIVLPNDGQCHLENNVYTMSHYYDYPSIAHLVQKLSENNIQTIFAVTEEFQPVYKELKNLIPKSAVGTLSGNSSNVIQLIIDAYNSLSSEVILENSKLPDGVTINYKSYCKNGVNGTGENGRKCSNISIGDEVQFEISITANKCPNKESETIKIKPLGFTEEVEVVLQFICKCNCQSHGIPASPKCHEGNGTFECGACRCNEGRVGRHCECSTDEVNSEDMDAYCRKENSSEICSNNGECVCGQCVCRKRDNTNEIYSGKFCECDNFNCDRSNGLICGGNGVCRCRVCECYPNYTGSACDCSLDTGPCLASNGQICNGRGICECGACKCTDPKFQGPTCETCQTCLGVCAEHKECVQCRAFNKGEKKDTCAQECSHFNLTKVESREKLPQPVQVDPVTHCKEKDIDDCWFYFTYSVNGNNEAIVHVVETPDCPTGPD
T6 sequence (P43406 31-988 limits assumed): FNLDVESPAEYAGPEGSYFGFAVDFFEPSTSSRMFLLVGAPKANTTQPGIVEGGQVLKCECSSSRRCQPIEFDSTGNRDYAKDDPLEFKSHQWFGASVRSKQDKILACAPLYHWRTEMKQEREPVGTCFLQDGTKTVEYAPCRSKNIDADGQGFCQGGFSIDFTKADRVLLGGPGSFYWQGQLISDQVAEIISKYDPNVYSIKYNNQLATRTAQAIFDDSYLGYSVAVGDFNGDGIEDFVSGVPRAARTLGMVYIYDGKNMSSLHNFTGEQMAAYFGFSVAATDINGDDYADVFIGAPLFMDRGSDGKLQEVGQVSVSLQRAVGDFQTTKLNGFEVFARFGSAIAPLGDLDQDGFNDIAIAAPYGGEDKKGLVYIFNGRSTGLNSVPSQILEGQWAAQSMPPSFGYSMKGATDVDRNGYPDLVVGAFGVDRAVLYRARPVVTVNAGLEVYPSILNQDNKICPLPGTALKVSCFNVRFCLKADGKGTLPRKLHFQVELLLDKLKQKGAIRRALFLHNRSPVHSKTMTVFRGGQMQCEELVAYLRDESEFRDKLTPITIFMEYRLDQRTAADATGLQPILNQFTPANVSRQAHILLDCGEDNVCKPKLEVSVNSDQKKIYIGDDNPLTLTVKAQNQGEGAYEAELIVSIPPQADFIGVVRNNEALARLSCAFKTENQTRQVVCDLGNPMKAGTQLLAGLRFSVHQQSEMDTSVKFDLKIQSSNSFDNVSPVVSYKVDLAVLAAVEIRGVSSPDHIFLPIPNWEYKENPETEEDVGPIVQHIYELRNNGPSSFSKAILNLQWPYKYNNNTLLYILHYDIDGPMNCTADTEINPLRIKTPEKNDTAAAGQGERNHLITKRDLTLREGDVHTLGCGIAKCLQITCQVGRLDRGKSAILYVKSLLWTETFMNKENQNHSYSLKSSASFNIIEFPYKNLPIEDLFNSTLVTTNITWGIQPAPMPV
T6 sequence (P09055 21-728 limits assumed): as the sequence (P09055 21-728 limits assumed) above

The IC50 is the concentration that gives 50% inhibition. With `COc1ccc([C@H](CC(=O)O)N2CCN(CCCc3ccc4c(n3)NCCC4)C2=O)cn1` [MK-0429, (3S)-3-(6-methoxypyridin-3-yl)-3-[2-oxo-3-[3-(5,6,7,8-tetrahydro-1,8-naphthyridin-2-yl)propyl]imidazolidin-1-yl]propanoic acid], the IC50 on mαvβ5 was 48.3 nM; on mαvβ3, 0.9 nM; on hαvβ3 (FIG. 3D, curve-fitted, read-out: IC50 against human αvβ3, AlphaLISA) it was 0.15 nM; at hαvβ3 (Table 11, read-out: IC50 Human integrin AlphaLISA assays hαvβ3) it was 1.6 nM; on hαvβ5 (FIG. 3D, curve-fitted, read-out: IC50 against human αvβ5, AlphaLISA) it was 9.9 nM; at hαvβ5 (Table 11, read-out: IC50 Human integrin AlphaLISA assays hαvβ5), 2.9 nM. Also, the figures for the IC50 on mα5β1 and at mαvβ1 were 50.3 nM and 1.3 nM, respectively. Also, the oral bioavailability result in series [1] is “good oral bioavailability”. The “inhibiting αSMA induction” value in series [2] is given as “minimal activity”.
